Assays:
ZAP-70 = target: T1, ZAP-70 (Homo sapiens, UniProt P43403); assay: ZAP-70 kinobeads assay; assay type: binding; settings: cell lysate, dot blot with ZAP-70 antibody
T1 construct: endogenous in cells
T1 sequence (P43403 1-619): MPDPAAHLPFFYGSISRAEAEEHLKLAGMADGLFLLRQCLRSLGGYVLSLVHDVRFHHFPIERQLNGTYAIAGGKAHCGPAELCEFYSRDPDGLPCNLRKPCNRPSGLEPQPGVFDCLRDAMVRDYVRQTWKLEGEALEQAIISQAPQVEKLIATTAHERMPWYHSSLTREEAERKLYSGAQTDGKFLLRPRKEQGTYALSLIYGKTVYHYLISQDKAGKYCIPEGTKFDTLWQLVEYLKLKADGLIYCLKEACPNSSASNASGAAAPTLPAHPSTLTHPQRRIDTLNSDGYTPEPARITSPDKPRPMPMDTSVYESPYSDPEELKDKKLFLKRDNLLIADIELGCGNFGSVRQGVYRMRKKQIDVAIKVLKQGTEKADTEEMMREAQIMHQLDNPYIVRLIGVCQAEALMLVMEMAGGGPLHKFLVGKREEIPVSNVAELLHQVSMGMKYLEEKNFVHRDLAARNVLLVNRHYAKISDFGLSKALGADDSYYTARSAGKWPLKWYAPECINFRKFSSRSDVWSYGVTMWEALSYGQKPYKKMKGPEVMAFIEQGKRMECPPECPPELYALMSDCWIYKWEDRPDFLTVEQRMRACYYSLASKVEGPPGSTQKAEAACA
Procedure: The compounds of the present invention as described in the previous examples were tested in the ZAP-70 kinobeads assay as described (EP-A 1862802 and WO-A 2007/137867). Briefly, test compounds (at various concentrations) and the affinity matrix with the immobilized aminopyrido-pyrimidine ligand 24 are added to cell lysate aliquots and allowed to bind to the proteins in the lysate sample. After the incubation time the beads with captured proteins are separated from the lysate. Bound proteins are then eluted and the presence ZAP-70 is detected and quantified using a specific antibody in a dot blot procedure and the Odyssey infrared detection system.

JAK3 = target: T2, JAK3 (Homo sapiens, UniProt P52333); assay: JAK3 kinobeads assay; assay type: binding; settings: cell lysate, dot blot with JAK3 specific antibody
T2 construct: endogenous in cells
T2 sequence (P52333 1-1124): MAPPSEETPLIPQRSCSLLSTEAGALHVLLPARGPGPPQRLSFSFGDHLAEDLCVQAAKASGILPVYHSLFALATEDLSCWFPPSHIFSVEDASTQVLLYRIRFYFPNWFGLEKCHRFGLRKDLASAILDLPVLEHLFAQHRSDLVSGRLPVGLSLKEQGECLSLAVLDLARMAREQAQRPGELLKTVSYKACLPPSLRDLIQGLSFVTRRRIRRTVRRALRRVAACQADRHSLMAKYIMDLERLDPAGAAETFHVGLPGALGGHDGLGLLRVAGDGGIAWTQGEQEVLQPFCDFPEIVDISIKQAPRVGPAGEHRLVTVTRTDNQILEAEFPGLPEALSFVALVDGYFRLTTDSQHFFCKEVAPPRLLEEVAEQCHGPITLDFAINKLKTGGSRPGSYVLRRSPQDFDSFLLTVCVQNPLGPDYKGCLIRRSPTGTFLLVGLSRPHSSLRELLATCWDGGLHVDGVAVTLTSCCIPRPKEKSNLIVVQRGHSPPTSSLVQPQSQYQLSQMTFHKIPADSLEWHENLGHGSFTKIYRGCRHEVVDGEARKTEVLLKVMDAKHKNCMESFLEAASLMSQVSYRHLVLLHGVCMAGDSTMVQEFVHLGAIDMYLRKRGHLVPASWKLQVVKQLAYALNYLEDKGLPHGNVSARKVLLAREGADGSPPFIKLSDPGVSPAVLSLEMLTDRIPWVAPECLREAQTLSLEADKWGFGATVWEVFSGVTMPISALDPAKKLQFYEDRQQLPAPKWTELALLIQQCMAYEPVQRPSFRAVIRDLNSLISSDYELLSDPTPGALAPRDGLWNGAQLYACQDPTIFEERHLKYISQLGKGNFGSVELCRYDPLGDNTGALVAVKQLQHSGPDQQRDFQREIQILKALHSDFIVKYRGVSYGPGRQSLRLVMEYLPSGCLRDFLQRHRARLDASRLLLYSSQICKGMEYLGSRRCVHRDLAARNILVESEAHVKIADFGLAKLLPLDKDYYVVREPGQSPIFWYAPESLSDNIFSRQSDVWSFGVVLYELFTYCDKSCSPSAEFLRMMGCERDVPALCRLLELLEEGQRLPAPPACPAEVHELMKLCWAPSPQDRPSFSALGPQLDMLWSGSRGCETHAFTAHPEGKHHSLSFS
Outline: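 In this competition pulldown, test compounds at various concentrations were incubated in cell lysate together with beads carrying an immobilized aminopyrido-pyrimidine ligand. Bead-bound proteins were eluted, and JAK3 was quantified by dot blot with a JAK3-specific antibody and infrared detection.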

| Structure (SMILES) | IC50 (ZAP-70) | IC50 (JAK3) |
| --- | --- | --- |
| Cn1cc(Nc2ncc(F)c(Nc3ccccc3NS(C)(=O)=O)n2)cn1 [Example 22, N-(2-(5-fluoro-2-(1-methyl-1H-pyrazol-4-ylamino)pyrimidin-4-ylamino)phenyl)methanesulfonamide] | 100 to 1000 nM | ≤ 100 nM |
| CS(=O)(=O)Nc1ccccc1Nc1nc(Nc2cn[nH]c2)ncc1F [Example 23, N-(2-(2-(1H-pyrazol-4-ylamino)-5-fluoropyrimidin-4-ylamino)phenyl)methanesulfonamide] | 100 to 1000 nM | ≤ 100 nM |
| COc1ccc(Nc2nc(Nc3cn[nH]c3)ncc2F)c(NS(C)(=O)=O)c1 [Example 24, N-(2-(2-(1H-pyrazol-4-ylamino)-5-fluoropyrimidin-4-ylamino)-5-methoxyphenyl)methanesulfonamide] | 100 to 1000 nM | ≤ 100 nM |
| Cc1nn(C)cc1Nc1ncc(F)c(Nc2ccccc2NS(C)(=O)=O)n1 [Example 30, N-(2-(2-(1,3-dimethyl-1H-pyrazol-4-ylamino)-5-fluoropyrimidin-4-ylamino)phenyl)methanesulfonamide] | 100 to 1000 nM | 100 to 1000 nM |
| CCn1cc(Nc2ncc(F)c(Nc3ccccc3NS(C)(=O)=O)n2)c(C)n1 [Example 37, N-(2-(2-(1-ethyl-3-methyl-1H-pyrazol-4-ylamino)-5-fluoropyrimidin-4-ylamino)phenyl)methanesulfonamide] | 1000 to 10000 nM | 100 to 1000 nM |
| CS(=O)(=O)Nc1ccccc1Nc1nc(Nc2ccon2)ncc1Cl [Example 38, N-(2-(5-chloro-2-(isoxazol-3-ylamino)pyrimidin-4-ylamino)phenyl)methanesulfonamide] | 1000 to 10000 nM | ≤ 100 nM |
| CC(C)n1ccc(Nc2ncc(Cl)c(Nc3ccccc3NS(C)(=O)=O)n2)n1 [Example 40, N-(2-(5-chloro-2-(1-isopropyl-1H-pyrazol-3-ylamino)pyrimidin-4-ylamino)phenyl)methanesulfonamide] | 100 to 1000 nM | ≤ 100 nM |
| Cn1cc(Nc2ncc(Br)c(Nc3ccccc3NS(C)(=O)=O)n2)cn1 [Example 41, N-(2-(5-bromo-2-(1-methyl-1H-pyrazol-4-ylamino)pyrimidin-4-ylamino)phenyl)methanesulfonamide] | 100 to 1000 nM | ≤ 100 nM |
| CCn1ccc(Nc2ncc(Cl)c(Nc3ccccc3NS(C)(=O)=O)n2)n1 [Example 42, N-(2-(5-chloro-2-(1-ethyl-1H-pyrazol-3-ylamino)pyrimidin-4-ylamino)phenyl)methanesulfonamide] | 100 to 1000 nM | ≤ 100 nM |
| Cn1ccc(Nc2ncc(Br)c(Nc3ccccc3NS(C)(=O)=O)n2)n1 [Example 43, N-(2-((5-bromo-2-((1-methyl-1H-pyrazol-3-yl)amino)pyrimidin-4-yl)amino)phenyl)methanesulfonamide] | 100 to 1000 nM | ≤ 100 nM |
| CS(=O)(=O)Nc1ccccc1Nc1nc(Nc2cnoc2)ncc1Cl [Example 44, N-(2-((5-chloro-2-(isoxazol-4-ylamino)pyrimidin-4-yl)amino)phenyl)methanesulfonamide] | 1000 to 10000 nM | 100 to 1000 nM |

Second part, the compound after the results:

| IC50 (ZAP-70) | IC50 (JAK3) | Structure (SMILES) |
| --- | --- | --- |
| 100 to 1000 nM | ≤ 100 nM | COc1ccc(Nc2nc(Nc3cnn(C)c3)ncc2F)c(NS(C)(=O)=O)c1 [Example 21, N-(2-(5-fluoro-2-(1-methyl-1H-pyrazol-4-ylamino)pyrimidin-4-ylamino)-5-methoxyphenyl)methanesulfonamide] |
| 100 to 1000 nM | ≤ 100 nM | CCn1cc(Nc2ncc(Cl)c(Nc3ccc(OC)cc3NS(C)(=O)=O)n2)c(C)n1 [Example 28, N-(2-(5-chloro-2-(1-ethyl-3-methyl-1H-pyrazol-4-ylamino)pyrimidin-4-ylamino)-5-methoxyphenyl)methanesulfonamide] |
| 100 to 1000 nM | 1000 to 10000 nM | CCn1nccc1Nc1ncc(Cl)c(Nc2ccc(OC)cc2NS(C)(=O)=O)n1 [Example 29, N-(2-(5-chloro-2-(1-ethyl-1H-pyrazol-5-ylamino)pyrimidin-4-ylamino)-5-methoxyphenyl)methanesulfonamide] |
| 1000 to 10000 nM | 1000 to 10000 nM | COc1ccc(Nc2nc(Nc3nonc3C)ncc2Cl)c(NS(C)(=O)=O)c1 [Example 31, N-(2-(5-chloro-2-(4-methyl-1,2,5-oxadiazol-3-ylamino)pyrimidin-4-ylamino)-5-methoxyphenyl)methanesulfonamide] |
| 100 to 1000 nM | 100 to 1000 nM | COc1ccc(Nc2nc(Nc3cn(C)nc3C)ncc2F)c(NS(C)(=O)=O)c1 [Example 32, N-(2-(2-(1,3-dimethyl-M-pyrazol-4-ylamino)-5-fluoropyrimidin-4-ylamino)-5-methoxyphenyl)methanesulfonamide] |
| 100 to 1000 nM | ≤ 100 nM | CCn1cc(Nc2ncc(Cl)c(Nc3ccccc3NS(C)(=O)=O)n2)c(C)n1 [Example 33, N-(2-(5-chloro-2-(1-ethyl-3-methyl-M-pyrazol-4-ylamino)pyrimidin-4-ylamino)phenyl)methanesulfonamide] |
| 100 to 1000 nM | 100 to 1000 nM | CCn1cc(Nc2ncc(F)c(Nc3ccc(OC)cc3NS(C)(=O)=O)n2)c(C)n1 [Example 34, N-(2-(2-(1-ethyl-3-methyl-1H-pyrazol-4-ylamino)-5-fluoropyrimidin-4-ylamino)-5-methoxyphenyl)methanesulfonamide] |
| ≤ 100 nM | ≤ 100 nM | Cc1nn(C)cc1Nc1ncc(Cl)c(Nc2ccccc2NS(C)(=O)=O)n1 [Example 35, N-(2-(5-chloro-2-(1,3-dimethyl-1H-pyrazol-4-ylamino)pyrimidin-4-ylamino)phenyl)methanesulfonamide] |
| 1000 to 10000 nM | 100 to 1000 nM | COc1ccc(Nc2nc(Nc3ccon3)ncc2F)c(NS(C)(=O)=O)c1 [Example 36, N-(2-(5-fluoro-2-(isoxazol-3-ylamino)pyrimidin-4-ylamino)-5-methoxyphenyl)methanesulfonamide] |
| 100 to 1000 nM | ≤ 100 nM | Cc1cc(Nc2ncc(Cl)c(Nc3ccccc3NS(C)(=O)=O)n2)nn1C [Example 39, N-(2-(5-chloro-2-(1,5-dimethyl-1H-pyrazol-3-ylamino)pyrimidin-4-ylamino)phenyl)methanesulfonamide] |
| ≤ 100 nM | 100 to 1000 nM | COc1ccc(Nc2nc(Nc3cnn(C)c3C)ncc2Cl)c(NS(C)(=O)=O)c1 [Example 67, N-(2-((5-chloro-2-((1,5-dimethyl-1H-pyrazol-4-yl)amino)pyrimidin-4-yl)amino)-5-methoxyphenyl)methanesulfonamide] |
| ≤ 100 nM | 100 to 1000 nM | CCn1ncc(Nc2ncc(Cl)c(Nc3ccc(OC)cc3NS(C)(=O)=O)n2)c1C [Example 77, N-(2-((5-chloro-2-((1-ethyl-5-methyl-1H-pyrazol-4-yl)amino)pyrimidin-4-yl)amino)-5-methoxyphenyl)methanesulfonamide] |
| 100 to 1000 nM | 1000 to 10000 nM | COc1ccc(Nc2nc(Nc3cc(C)nn3CCO)ncc2Cl)c(NS(C)(=O)=O)c1 [Example 94, N-(2-((5-chloro-2-((1-(2-hydroxyethyl)-3-methyl-1H-pyrazol-5-yl)amino)pyrimidin-4-yl)amino)-5-methoxyphenyl)methanesulfonamide] |

Reference: patent US20120172384A1, “HETEROCYCLYLAMINOPYRIMIDINES AS KINASE INHIBITORS” (priority 2009, published 2012)
